From publication PMC8878452, “A Tale of Toxin Promiscuity: The Versatile Pharmacological Effects of Hcr 1b-2 Sea Anemone Peptide on Voltage-Gated Ion Channels” (Marine Drugs, 2022)
Entries after “also recorded” stand apart in the source; their conditions may differ. Bridges are numbered along the chain shown (N, C = ends). Where no end group is shown, it is not given here.

Legend:
rKv1.4 = assay: TEVC, Kv1.4 in Xenopus oocytes; assay type: cell-based, rat
Excerpt: (§1) For the expression of Kv channels (rKv1.1, rKv1.2, rKv1.3, rKv1.4, rK1.5, rKv1.6, hKv2.1, hKv3.1, rKv4.2, hKv7.1, hKv7.2/7.3, hKv7.4, KQT1 (from the roundworm Caenorhabditis elegans), hKv10.1 (hEAG1), hKv11.1 (hERG1), and Shaker, from Drosophila melanogaster), Nav channels (rNav1.1, rNav1.2, rNav1.3, rNav1.4, hNav1.5, mNav1.6, hNav1.7, hNav1.8, and BgNav (from the cockroach Blattella germanica), as well as the hβ1 and rβ1 subunits, and Cav channels (rCav3.1, hCav3.2, and rCav3.3) in Xenopus oocytes, the linearized plasmids were transcribed using the T7 or SP6 mMESSAGEmMACHINE transcription kit (Ambion, Austin, TX, USA). Mature female animals were purchased from Nasco (Fort Atkinson, WI, USA) and were housed in the Aquatic Facility (KU Leuven) in compliance with the regulations of the European Union (EU) concerning the welfare of laboratory animals as declared in Directive 2010/63/EU. The use of X. laevis oocytes was approved by the Animal Ethics Committee of the KU Leuven, with the license number P186/2019.
(§2) Stage V–VI oocytes were collected from anesthetized female X. laevis frog as previously described, with the frogs anesthetized by placement in a 0.1% tricaine solution (amino benzoic acid ethyl ester; Merck, Kenilworth, NJ, USA). Oocyte microinjection was performed using a microinjector (Drummond Scientifc®, Broomall, PA, USA), with a programmed cRNA injection volume of 4–50 nL, depending on channel subtype. The oocytes were incubated in ND96 solution (96 mM NaCl; 2 mM KCl; 1.8 mM CaCl2; 2 mM MgCl2, and 5 mM HEPES, pH 7.4), supplemented with 50 mg/L of gentamicin sulfate.
(§3) Electrophysiological measurements were performed at room temperature (18–22 °C) using the two-electrode voltage-clamp (TEVC) technique. Data were obtained using a GeneClamp 500 amplifier (Axon Instruments®, Burlingame, CA, USA) and Clampex9 software (Axon Instruments®, USA) was responsible for data acquisition and storage. Glass micropipettes were produced using glass capillaries (borosilicate WPI 1B120-6) and drawn in a WPI (World Precision Instruments®, Sarasota, FL, USA) manual stretcher. The bath and perfusion solutions were either the previously described ND96 (Nav and Kv channels) or calcium-free ND96 supplemented with 10 mM BaCl2 (Cav channels).
(§4) Whole-cell currents of oocytes were recorded 1 to 3 days after RNA injection. The current and voltage electrodes were filled with 3 M KCl, and their resistance was adjusted from 1.0 to 2.5 MΩ. Currents were sampled at 20 kHz (Nav channels) and 10 kHz (Kv and Cav channels) and filtered using a four-pole Bessel low-pass Bessel filter at 1 kHz for sodium and […] for potassium and calcium, except for the hERG ion channel in which the currents were filtered at 1 kHz. Leak subtraction was performed using a P/4 protocol. Kv1.x currents were evoked by 500 ms depolarizations to 0 mV, followed by a 500 ms pulse to −50 mV from a holding potential of −90 mV. Kv2.1, Kv3.1, Kv4.2, Kv7.x, and KQT1 currents were elicited by 700 ms pulses to +20 mV from a holding potential of −90 mV. Current traces of the hERG1 channel were elicited by applying a +40 mV prepulse for 2 s, followed by a step of −120 mV for 2 s. […] The current–voltage relationships were determined by 50 ms step depolarizations between −90 and +65 mV using 5 or 10 mV increments. All electrophysiological data were analyzed following the procedures described by Peigneur et al., 2012 [20].
(§5) All values were expressed as means ± SEM. […]

Kv1.5 = assay: TEVC, Kv1.5 in Xenopus oocytes; assay type: cell-based, rat; conditions: 1 µM, n ≥ 3
Excerpt: as §1, with “P186/2019. […]” for “P186/2019.”
(§6) Whole-cell currents of oocytes were recorded 1 to 3 days after RNA injection. […] The current–voltage relationships were determined by 50 ms step depolarizations between −90 and +65 mV using 5 or 10 mV increments. All electrophysiological data were analyzed following the procedures described by Peigneur et al., 2012 [20].
as §5

hKv7.1 = assay: TEVC, Kv7.1 in Xenopus oocytes; assay type: cell-based, human
Excerpt: as §1, §2, §3, §4, §5

hKv7.4 = assay: TEVC, Kv7.4 in Xenopus oocytes; assay type: cell-based, human
Excerpt: as §1, §2, §3
Whole-cell currents of oocytes were recorded 1 to 3 days after RNA injection. The current and voltage electrodes were filled with 3 M KCl, and their resistance was adjusted from 1.0 to 2.5 MΩ. […] The current–voltage relationships were determined by 50 ms step depolarizations between −90 and +65 mV using 5 or 10 mV increments. All electrophysiological data were analyzed following the procedures described by Peigneur et al., 2012 [20].
as §5

rNav1.1 = assay: TEVC, Nav1.1 in Xenopus oocytes; assay type: cell-based, rat
Excerpt: as §1, §2, §3, §4, §5

rNav1.3 = assay: TEVC, Nav1.3 in Xenopus oocytes; assay type: cell-based, rat
Excerpt: as §1, §2, §3, §4, §5

rNav1.4 = assay: TEVC, Nav1.4 in Xenopus oocytes; assay type: cell-based, rat
Excerpt: as §1, §2, §3, §4, §5

hNav1.5 = assay: TEVC, Nav1.5 in Xenopus oocytes; assay type: cell-based, human
Excerpt: as §1, §2, §3
Whole-cell currents of oocytes were recorded 1 to 3 days after RNA injection. The current and voltage electrodes were filled with 3 M KCl, and their resistance was adjusted from 1.0 to 2.5 MΩ. Currents were sampled at 20 kHz (Nav channels) and 10 kHz (Kv and Cav channels) and filtered using a four-pole Bessel low-pass Bessel filter at 1 kHz for sodium and […] for potassium and calcium, except for the hERG ion channel in which the currents were filtered at 1 kHz. Leak subtraction was performed using a P/4 protocol. Kv1.x currents were evoked by 500 ms depolarizations to 0 mV, followed by a 500 ms pulse to −50 mV from a holding potential of −90 mV. Kv2.1, Kv3.1, Kv4.2, Kv7.x, and KQT1 currents were elicited by 700 ms pulses to +20 mV from a holding potential of −90 mV. Current traces of the hERG1 channel were elicited by applying a +40 mV prepulse for 2 s, followed by a step of −120 mV for 2 s. Current traces of hEAG1 were elicited by a 2 s depolarization to 0 mV from a holding potential of −90 mV. Sodium current traces were evoked by a 100 ms depolarization to 0 mV. For Cav channels, current traces were elicited by 700 ms depolarizations to −20 mV from a holding potential of −90 mV. The current–voltage relationships were determined by 50 ms step depolarizations between −90 and +65 mV using 5 or 10 mV increments. All electrophysiological data were analyzed following the procedures described by Peigneur et al., 2012 [20].
All values were expressed as means ± SEM. Differences in ionic currents between the control and toxin conditions were compared by a one-way ANOVA, followed by Dunnett’s multiple comparisons test. Differences were considered statistically significant when […].

mNav1.6 = assay: TEVC, Nav1.6 in Xenopus oocytes; assay type: cell-based, mouse
Excerpt: as §1, §2, §3, §4, §5

BgNav = assay: TEVC, BgNav in Xenopus oocytes; assay type: cell-based, Blattella germanica
Excerpt: as §1, §2, §3, §4, §5

[1] = test system: T-type voltage-gated calcium channels; assay: TEVC panel of three T-type Cav channels, voltage dependence; assay type: cell-based; conditions: 1 µM vs control
Excerpt: as §1, with “P186/2019. […]” for “P186/2019.”
as §6, §5

[2] = 1 µM, TEVC, ND96 pH 7.4, 18–22 °C, n ≥ 3
[3] = 1 µM, 100 ms depolarization to 0 mV, mean ± SEM, n ≥ 3

Sequence: GTPCKCHGYIGVYWFMLAGCPNGYGYNLSCPYFLGICCVKK (disulfide 4-37, 6-30, 20-38 (inferred)) [Hcr 1b-2]
- gating-modifier effect (voltage-current relationship), Kv1.4 (rKv1.4; 1 µM): non-significant gating-modifier effect; also recorded: negligible shift in the midpoint of activation
- Shift in Vhalf activation, Kv1.4 (rKv1.4; 1 µM vs control (ND96)): 2.5 mV
- activity (inhibition of current), Kv1.4 (rKv1.4; 1 µM, 500 ms depolarization to 0 mV from −90 mV, mean ± SEM, n ≥ 3): 46.9 ± 4.3%
- effect on potassium current, Kv1.4 (rKv1.4; [2]): inhibition
- Vhalf activation, Kv1.4 (rKv1.4; 1 µM, control (ND96) 7.5 ± 0.7, mean ± SEM): 10.0 ± 0.5 mV
- activity (inhibition of current), Kv1.5 (Kv1.5; 500 ms depolarization to 0 mV from −90 mV, mean ± SEM): 41.9 ± 4.7%
- effect on potassium current, Kv1.5 (Kv1.5; TEVC, ND96 pH 7.4, 18–22 °C): inhibition
- gating-modifier effect (voltage-current relationship), Kv7.1 (hKv7.1; 1 µM): stronger shift
- Shift in Vhalf activation, Kv7.1 (hKv7.1; 1 µM vs control (ND96)): 6.4 mV
- activity (inhibition of current), Kv7.1 (hKv7.1; 1 µM, 700 ms pulse to +20 mV from −90 mV, mean ± SEM, n ≥ 3): 36.2 ± 1.3%
- effect on potassium current, Kv7.1 (hKv7.1; [2]): inhibition; also recorded: inhibits
- Vhalf activation, Kv7.1 (hKv7.1; 1 µM, control (ND96) 5.8 ± 0.4, mean ± SEM): 12.2 ± 0.6 mV
- gating-modifier effect (voltage-current relationship), Kv7.4 (hKv7.4; 1 µM): stronger shift
- Shift in Vhalf activation, Kv7.4 (hKv7.4; 1 µM vs control (ND96)): 7.1 mV
- effect on potassium current, Kv7.4 (hKv7.4; [2]): inhibition; also recorded: inhibits
- Vhalf activation, Kv7.4 (hKv7.4; 1 µM, control (ND96) 3.8 ± 0.3, mean ± SEM): 10.9 ± 0.3 mV
- Shift in Vhalf activation, Nav1.1 (rNav1.1; 1 µM vs control (ND96)): 0.1 mV
- Shift in Vhalf inactivation, Nav1.1 (rNav1.1; 1 µM vs control (ND96)): −5.8 mV
- reduction of peak amplitude (INa) / inhibition, Nav1.1 (rNav1.1; [3]): 31.2 ± 3.8%
- Vhalf activation, Nav1.1 (rNav1.1; 1 µM, control (ND96) −24.6 ± 0.1, mean ± SEM, n ≥ 3): −24.5 ± 0.1 mV
- Vhalf inactivation, Nav1.1 (rNav1.1; 1 µM, control (ND96) −37.2 ± 0.2, mean ± SEM, n ≥ 3): −43 ± 0.4 mV
- Shift in Vhalf activation, Nav1.3 (rNav1.3; 1 µM vs control (ND96)): 5.3 mV
- Shift in Vhalf inactivation, Nav1.3 (rNav1.3; 1 µM vs control (ND96)): −3.4 mV
- inhibition of peak amplitude (INa), Nav1.3 (rNav1.3; [3]): 11.2 ± 1.8%
- Vhalf activation, Nav1.3 (rNav1.3; 1 µM, control (ND96) −21.2 ± 0.1, mean ± SEM, n ≥ 3): −15.9 ± 0.1 mV
- Vhalf inactivation, Nav1.3 (rNav1.3; 1 µM, control (ND96) −29.9 ± 0.1, mean ± SEM, n ≥ 3): −33.3 ± 0.1 mV
- Shift in Vhalf activation, Nav1.4 (rNav1.4; 1 µM vs control (ND96)): 5.5 mV
- Shift in Vhalf inactivation, Nav1.4 (rNav1.4; 1 µM vs control (ND96)): −1.7 mV
- reduction of peak amplitude (INa), Nav1.4 (rNav1.4; [3]): 29.1 ± 3.0%
- Vhalf activation, Nav1.4 (rNav1.4; 1 µM, control (ND96) −24.4 ± 0.1, mean ± SEM, n ≥ 3): −18.9 ± 0.1 mV
- Vhalf inactivation, Nav1.4 (rNav1.4; 1 µM, control (ND96) −48.5 ± 0.3, mean ± SEM, n ≥ 3): −50.2 ± 0.2 mV
- effect on activation or inactivation, Nav1.5 (hNav1.5; 1 µM): no significant effect
- Shift in Vhalf activation, Nav1.5 (hNav1.5; 1 µM vs control (ND96)): 3.8 mV
- Shift in Vhalf inactivation, Nav1.5 (hNav1.5; 1 µM vs control (ND96)): −3.2 mV
- reduction of peak amplitude (INa), Nav1.5 (hNav1.5; [3]): 41.6 ± 5.9%
- Vhalf activation, Nav1.5 (hNav1.5; 1 µM, control (ND96) −38.5 ± 0.1, mean ± SEM, n ≥ 3): −34.7 ± 0.1 mV
- Vhalf inactivation, Nav1.5 (hNav1.5; 1 µM, control (ND96) −66.0 ± 0.2, mean ± SEM, n ≥ 3): −69.2 ± 0.2 mV
- Shift in Vhalf activation, Nav1.6 (mNav1.6; 1 µM vs control (ND96)): 3.5 mV
- Shift in Vhalf inactivation, Nav1.6 (mNav1.6; 1 µM vs control (ND96)): −7.6 mV
- reduction of peak amplitude (INa), Nav1.6 (mNav1.6; [3]): 41.8 ± 7.1%
- Vhalf activation, Nav1.6 (mNav1.6; 1 µM, control (ND96) −23.5 ± 0.1, mean ± SEM, n ≥ 3): −20.0 ± 0.1 mV
- Vhalf inactivation, Nav1.6 (mNav1.6; 1 µM, control (ND96) −49.1 ± 0.3, mean ± SEM, n ≥ 3): −56.7 ± 0.4 mV
- Shift in Vhalf activation, BgNav (BgNav; 1 µM vs control (ND96)): 1.9 mV
- Shift in Vhalf inactivation, BgNav (BgNav; 1 µM vs control (ND96)): −5.0 mV
- reduction of peak amplitude (INa) / inhibition, BgNav (BgNav; [3]): 17.7 ± 1.2%
- Vhalf activation, BgNav (BgNav; 1 µM, control (ND96) −29.0 ± 0.1, mean ± SEM, n ≥ 3): −27.1 ± 0.1 mV
- Vhalf inactivation, BgNav (BgNav; 1 µM, control (ND96) −47.9 ± 0.3, mean ± SEM, n ≥ 3): −52.9 ± 0.3 mV
- changes in voltage–current relationship, Cav3.1–3.3 activation and inactivation [1]: insignificant changes
